From patent US11229626B2, “Synergistic nutritional compositions for treating seizures and chronic inflammatory diseases” (CELAGENEX RESEARCH (INDIA) PVT. LTD., priority 2020, dated 2022) come the findings set out here.

For this experiment, the system named is PTZ induced rat model. Description: PTZ (pentylene-tetrazole) induced convulsions, anti-convulsant activity in Wistar rats. Type of experiment: in vivo. To be noted: male Wistar rats, n=6 per group, 60 mg/kg PTZ intraperitoneally 1 hr after test item; for Straub Tail / Clonic Convulsions / Stupor / Tonic Convulsions: doses per Table 1; for Clonic Convulsions / Stupor / Tonic Convulsions: mean; for Recovery: outcome recovery or death. As for the experimental part: The purpose of this study is to evaluate the effect of anti-convulsant activity of the test compound in Wistar Rats.
The systemic administration of PTZ is one of the most commonly employed methods for anti-convulsant screening. The preference has been given to this model due to its ease of performance, reliability, ease of expressing results and the shorter time-period to produce convulsions.
60 mg/kg of PTZ was injected per body weight, intraperitoneally 1 hr after the test item administration.
All animals were acclimatized for five days and seizures were induced by administering 60 mg/kg PTZ per body weight, 1 hr after test item administration. Normal control group was injected with phosphate buffer solution.
As Group 1 (Vehicle control), Group 2 served as diseased control, Group 3 was Reference standard and Group 4, Group 5 and Group 6 served as test substance. The dose was administered for short term (single day administration) or long term (14 or 21 days) after acclimatization.
The time was recorded for convulsion phase clonic, tonic and stupor after test administration. All values were expressed as MEAN±STD. The significant difference between the treatment and control group was estimated using oneway ANOVA with Dennett's test. All results of the statistical analysis were summarized in separate tables.

Take `CC[C@@H](C(N)=O)N1CCCC1=O` [Levetiracetam, reference compound]: the “Straub Tail” value is given as “Absent”, the “Clonic Convulsions” value was 3.33 s, the “Stupor” value was 56.16 s and the “Tonic Convulsions” value is 5.83 s. In addition, the Recovery result is “Recovery”.
On to `C[N+](C)(C)[C@@H](Cc1c[nH]c(=S)[nH]1)C(=O)O` [L-Ergothioneine, L-ergothioneine], for which the “Straub Tail” value is listed as “Absent”, the “Clonic Convulsions” value amounted to 4.66 s, the “Stupor” value is 70.33 s and the “Tonic Convulsions” value came out at 8.00 s. For the same compound, the Recovery entry is recorded as “Recovery”.
Taken in the same sequence, the figures for `CCCCCCCCCC(=O)OCC(COC(=O)CCCCCCCCC)OC(=O)CCCCCCCCC` [Tridecanoin] were “Absent”, 5.00 s, 74.16 s, 7.66 s and “Recovery”.
